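Method: 48-hour compound exposure of cells in 96-well plates, five concentrations, linear interpolation of endpoints. The concentration for 50% growth inhibition is given as GI50.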 Activity calls are given as the source filed them. Rule as the data show it: active = GI50 up to about 1.1 µM and inactive = higher.
How the values were obtained:
Assay in all cases: NCI-60 cell line screen, 48 h
A549 = test system: A549
CCRF-CEM = test system: CCRF-CEM
COLO 205 = test system: COLO 205
HCT-15 = test system: HCT-15
HL-60 = test system: HL-60
HOP-62 = test system: HOP-62
HOP-92 = test system: HOP-92
IGROV-1 = test system: IGROV-1
K562 = test system: K562
LOX IMVI = test system: LOX IMVI
NCI-H226 = test system: NCI-H226
NCI-H460 = test system: NCI-H460
NCI-H522 = test system: NCI-H522
OVCAR-4 = test system: OVCAR-4
RXF 393 = test system: RXF 393
SK-MEL-28 = test system: SK-MEL-28
SNB-19 = test system: SNB-19
SW-620 = test system: SW-620
MOLT-4 = test system: MOLT-4
OVCAR-3 = test system: OVCAR-3

| Compound | GI50 (A549) | GI50 (CCRF-CEM) | GI50 (COLO 205) | GI50 (HCT-15) [µM] | GI50 (HL-60) | GI50 (HOP-62) | GI50 (HOP-92) | GI50 (IGROV-1) | GI50 (K562) | GI50 (LOX IMVI) | GI50 (NCI-H226) | GI50 (NCI-H460) | GI50 (NCI-H522) | GI50 (OVCAR-4) | GI50 (RXF 393) | GI50 (SK-MEL-28) | GI50 (SNB-19) | GI50 (SW-620) | GI50 (MOLT-4) | GI50 (OVCAR-3) |
| --- | --- | --- | --- | --- | --- | --- | --- | --- | --- | --- | --- | --- | --- | --- | --- | --- | --- | --- | --- | --- |
| CCOC(=O)C(=O)NC12CC3CC(CC(C3)C1)C2 | > 100 µM (inactive) | > 100 µM (inactive) | > 100 µM (inactive) | > 100 | > 100 µM (inactive) | > 100 µM (inactive) | > 100 µM (inactive) | > 100 µM (inactive) | > 100 µM (inactive) | 0.208 µM (active) | > 100 µM (inactive) | > 100 µM (inactive) | > 100 µM (inactive) | > 100 µM (inactive) | > 100 µM (inactive) | > 100 µM (inactive) | > 100 µM (inactive) | > 100 µM (inactive) |  |  |
| CN(C)CCNC(=O)c1cc(Cl)cc2cc3ccccc3nc12 | 0.557 µM (active) | 0.498 µM (active) | 0.433 µM (active) | 0.755 | 0.578 µM (active) | 1.62 µM (inactive) |  | 1.14 µM (inactive) | 1.01 µM (active) | 0.597 µM (active) | 0.843 µM (active) | 0.311 µM (active) |  | 2.2 µM (inactive) | 1.06 µM (active) | 1.76 µM (inactive) | 1.33 µM (inactive) | 0.519 µM (active) | 0.396 µM (active) | 4.71 µM (inactive) |
| COc1ccc(C(=O)Nc2ccc(O)c(=O)cc2)cc1 | 43.9 µM (inactive) | 24 µM (inactive) | 24.2 µM (inactive) | 26.9 | 21.3 µM (inactive) | 80.9 µM (inactive) |  | 37.9 µM (inactive) | 32.4 µM (inactive) | 38.7 µM (inactive) | > 100 µM (inactive) | 15.3 µM (inactive) | 25.8 µM (inactive) |  | 13.6 µM (inactive) | 22.5 µM (inactive) | 36.1 µM (inactive) | 30.7 µM (inactive) |  | 27.6 µM (inactive) |
| COc1c2c(cc3c(CCc4ccccc4)cc(=O)oc13)CCC(C)(C)O2 |  | > 100 µM (inactive) | > 100 µM (inactive) | > 100 | > 100 µM (inactive) | > 100 µM (inactive) | 2.34 µM (inactive) | > 100 µM (inactive) | > 100 µM (inactive) | > 100 µM (inactive) | > 100 µM (inactive) | > 100 µM (inactive) |  |  | > 100 µM (inactive) | > 100 µM (inactive) |  | > 100 µM (inactive) | > 100 µM (inactive) | > 100 µM (inactive) |
| Cc1ccnc2nc(N)ccc12 | > 100 µM (inactive) | > 100 µM (inactive) | > 100 µM (inactive) | > 100 | > 100 µM (inactive) |  |  | > 100 µM (inactive) | > 100 µM (inactive) |  | > 100 µM (inactive) | > 100 µM (inactive) | > 100 µM (inactive) | > 100 µM (inactive) | > 100 µM (inactive) | > 100 µM (inactive) | > 100 µM (inactive) | > 100 µM (inactive) | > 100 µM (inactive) |  |
| COc1ccc(/C(Cl)=C(\C=O)c2ccc(F)cc2)cc1 |  | 3.14 µM (inactive) | 16.6 µM (inactive) | 4.24 | 2.72 µM (inactive) | 9.59 µM (inactive) | 4.29 µM (inactive) | 18.9 µM (inactive) | 4.78 µM (inactive) | 7.03 µM (inactive) | 11.7 µM (inactive) | 4.46 µM (inactive) | 4.06 µM (inactive) |  |  | 16.7 µM (inactive) | 17.9 µM (inactive) | 6.81 µM (inactive) | 3.56 µM (inactive) | 19.1 µM (inactive) |
